Each structure is given as a SMILES string.

For experiment [1], the target named is T1, human PI3Kα (PIK3CA/PIK3R1) (Homo sapiens, UniProt P42336).
T1 construct: purchased ProQinase, Germany 1161‐1165‐1
As to the kind of experiment: lipid kinase assay (ADP-Glo), PI3Kα. The experiment is classed as biochemical. As for the experimental part: (§1) In vitro selection, lipid kinase assay: To determine the inhibitory activity of the new molecular entities on PI3K enzyme, a lipid kinase assay was performed: recombinant proteins (30 ng), human PI3Kα (PIK3CA/PIK3R1, #1161‐1165‐1 ProQinase–Germany), hPI3Kβ (PIK3CB wt/PIK3R1, #1168‐1165‐1 ProQinase, Germany), hPI3Kγ (PIK3CG, #1163‐0000‐1 ProQinase, Germany), hPI3Kδ (PIK3CD/PIK3R1, #1162–1165‐1 ProQinase, Germany), hPI3K‐C2α (PIK3C2A, #14‐906 Merck Millipore_Merck KGaA, Germany), hPI3K‐C2β (PIK3C2B, #14‐907 Merck Millipore_Merck KGaA, Germany), hPI3K‐c2γ (PIK3C2G, #1207‐0000‐1 ProQinase, Germany), and hVps34 (PIK3C3, #1160‐0000‐1 ProQinase, Germany), were incubated in kinase buffer {12.5 μL; 20 mM Tris‐HCl pH 7.5, 10 mM MgCl2, 10 μM ATP, 0.05 mg mL^−1 BSA, 0.5 mM EDTA, 5 mM HEPES pH 7.5, for PI3Kα,PI3Kβ, PI3Kγ, PI3Kδ, PI3KC‐2α, and PI3KC‐2γ; 15 mM MnCl2, 5 mM EGTA, 100 μM ATP, 50 mM HEPES pH 7.5, 100 mM NaCl, and 0.03 % CHAPS for PI3K‐C2β and VPS34 {BSA=bovine serum albumin; EDTA=ethylenediaminetetraacetic acid; HEPES=4‐(2‐hydroxyethyl)‐1‐piperazineethanesulfonic acid; EGTA=ethylene glycol‐bis(2‐aminoethylether)‐N,N,N′,N′‐tetraacetic acid; CHAPS=3‐[(3‐cholamidopropyl)dimethylammonio]‐1‐propanesulfonate}. In the reaction, the ATP concentration used for different PI3Ks was defined on the basis of the Michaelis–Menten kinetics of each enzyme, provided by the supplier. Reaction was performed in presence of 0.5 mg mL^−1 lipid micelles (1:1 phosphatidylinositol/phosphatidylserine) and in the absence (DMSO alone) or presence of increasing concentrations of each compound (from 0.1 nM to 30 μM). The mixture was kept at room temperature (RT) for 30 min for PI3Kα, PI3Kβ, PI3Kγ, PI3Kδ, PI3KC‐2α, and PI3KC‐2γ and for 1 h for PI3K‐C2β and PI3K‐C3. The amount of ADP produced in the reaction was measured by using the ADP‐Glo Kinase Assay kit from Promega (#V9102) and a luminescence reader (Glomax multi detection system, Promega, model number 9301‐010).
(§2) The residual PI3K lipid kinase activity in the presence of each molecule at different concentrations was related to the control, intended as the recombinant protein in the presence of DMSO alone and was expressed as a percentage. To derive the IC50 value, all data (% of lipid kinase activity) were plotted on a dose–response curve (Graph Pad software), and the IC50 was calculated by using nonlinear regression fit (equation [log agonist] versus response).

A further experiment deals with T2, hPI3Kγ (PIK3CG) (Homo sapiens, UniProt P48736).
T2 construct: purchased ProQinase, Germany 1163‐0000‐1
T2 sequence (P48736 whole entry): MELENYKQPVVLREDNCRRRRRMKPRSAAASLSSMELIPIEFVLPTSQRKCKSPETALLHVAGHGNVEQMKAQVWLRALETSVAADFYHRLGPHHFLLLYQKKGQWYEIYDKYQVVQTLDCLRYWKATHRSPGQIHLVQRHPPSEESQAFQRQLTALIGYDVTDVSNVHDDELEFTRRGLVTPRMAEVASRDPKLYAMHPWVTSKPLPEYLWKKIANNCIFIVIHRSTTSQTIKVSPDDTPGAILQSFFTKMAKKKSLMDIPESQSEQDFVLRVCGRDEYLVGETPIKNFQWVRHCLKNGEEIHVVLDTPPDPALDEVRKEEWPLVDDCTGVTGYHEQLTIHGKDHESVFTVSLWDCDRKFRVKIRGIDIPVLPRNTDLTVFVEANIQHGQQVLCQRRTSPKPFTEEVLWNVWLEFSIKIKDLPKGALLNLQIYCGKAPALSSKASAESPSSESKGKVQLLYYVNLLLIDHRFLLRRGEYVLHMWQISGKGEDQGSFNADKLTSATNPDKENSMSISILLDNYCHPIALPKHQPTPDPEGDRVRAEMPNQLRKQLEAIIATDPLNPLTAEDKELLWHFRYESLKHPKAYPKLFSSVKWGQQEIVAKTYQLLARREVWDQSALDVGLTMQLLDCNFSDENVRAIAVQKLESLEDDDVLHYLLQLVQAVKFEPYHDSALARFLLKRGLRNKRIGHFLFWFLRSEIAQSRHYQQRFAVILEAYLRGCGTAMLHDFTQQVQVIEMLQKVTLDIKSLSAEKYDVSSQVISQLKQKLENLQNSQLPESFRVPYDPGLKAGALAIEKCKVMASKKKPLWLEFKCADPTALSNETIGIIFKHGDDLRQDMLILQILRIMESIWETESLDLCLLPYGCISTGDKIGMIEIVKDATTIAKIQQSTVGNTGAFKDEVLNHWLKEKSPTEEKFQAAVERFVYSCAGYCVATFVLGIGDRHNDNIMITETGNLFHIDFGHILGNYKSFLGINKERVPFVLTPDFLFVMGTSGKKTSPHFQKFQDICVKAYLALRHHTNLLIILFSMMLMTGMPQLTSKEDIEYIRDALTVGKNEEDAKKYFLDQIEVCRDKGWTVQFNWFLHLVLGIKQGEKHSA
As to the kind of experiment: lipid kinase assay (ADP-Glo), PI3Kγ. The format is biochemical. Here is the method:
as §1, §2

The next experiment addresses hPI3K‐C2α (PIK3C2A) (Homo sapiens, UniProt O00443). The experiment can be described thus: lipid kinase assay (ADP-Glo), PI3K-C2α. The experiment is classed as biochemical. As to conditions: Table 2; mean of at least three determinations, 95 % confidence intervals; read-out: IC50 PI3Kc2α. As for the experimental part:
as §1, with “Reaction was performed in presence of 0.5 mg mL^−1 lipid micelles (1:1 phosphatidylinositol/phosphatidylserine) and in the absence (DMSO alone) or presence of increasing concentrations of each compound (from 0.1 nM to 30 μM). The mixture was kept at room temperature (RT) for 30 min for PI3Kα, PI3Kβ, PI3Kγ, PI3Kδ, PI3KC‐2α, and PI3KC‐2γ and for 1 h for PI3K‐C2β and PI3K‐C3. The amount of ADP produced in the reaction was measured by using the ADP‐Glo Kinase Assay kit from Promega (#V9102) and a luminescence reader (Glomax multi detection system, Promega, model number 9301‐010).” left out
(In ADP-Glo the light output rises with the ADP produced.)

For the next experiment, the target named is hPI3K‐C2β (PIK3C2B) (Homo sapiens, UniProt O00750). As to the kind of experiment: lipid kinase assay (ADP-Glo), PI3K-C2β. Conditions: Table 2; 100 μM ATP; read-out: IC50 PI3Kc2β. The experiment is classed as biochemical. As for the experimental part:
as §1, with “Reaction was performed in presence of 0.5 mg mL^−1 lipid micelles (1:1 phosphatidylinositol/phosphatidylserine) and in the absence (DMSO alone) or presence of increasing concentrations of each compound (from 0.1 nM to 30 μM). The mixture was kept at room temperature (RT) for 30 min for PI3Kα, PI3Kβ, PI3Kγ, PI3Kδ, PI3KC‐2α, and PI3KC‐2γ and for 1 h for PI3K‐C2β and PI3K‐C3. The amount of ADP produced in the reaction was measured by using the ADP‐Glo Kinase Assay kit from Promega (#V9102) and a luminescence reader (Glomax multi detection system, Promega, model number 9301‐010).” left out

The target in the next experiment is T3, hVps34 (PIK3C3) (Homo sapiens, UniProt Q8NEB9).
T3 construct: purchased ProQinase, Germany 1160‐0000‐1
The experiment can be described thus: lipid kinase assay (ADP-Glo), PI3K-C3. The format is biochemical. As to conditions: Table 2; mean of at least three determinations, 95 % confidence intervals; read-out: IC50 PI3Kc3. Here is the method: as §1, with “Reaction was performed in presence of 0.5 mg mL^−1 lipid micelles (1:1 phosphatidylinositol/phosphatidylserine) and in the absence (DMSO alone) or presence of increasing concentrations of each compound (from 0.1 nM to 30 μM). The mixture was kept at room temperature (RT) for 30 min for PI3Kα, PI3Kβ, PI3Kγ, PI3Kδ, PI3KC‐2α, and PI3KC‐2γ and for 1 h for PI3K‐C2β and PI3K‐C3. The amount of ADP produced in the reaction was measured by using the ADP‐Glo Kinase Assay kit from Promega (#V9102) and a luminescence reader (Glomax multi detection system, Promega, model number 9301‐010).” left out

Experiment [2] concerns PI3K/Akt signaling in NIH3T3 cells. As to the kind of experiment: insulin-stimulated Akt phosphorylation, Western blot, NIH3T3 cells. The format is cell-based. As to conditions: 1 μM insulin for 5 min, immunoblot. Here is the method: Figure 8 Treatment with 64 prodrug inhibited PI3K/Akt signaling. NIH3T3 cells were […] for 12 h and were treated with the indicated concentrations of 37 and 64. Cells were next stimulated with 1 μM insulin for 5 min, and total cell lysates were prepared. Immunoblot analysis was conducted for the expression levels of p‐AKT and GAPDH. The immunoblot is representative of three independent experiments.
NIH3T3 cells were seeded in a 96‐well plate and starved overnight (ON) with serum‐free DMEM high glucose GlutaMAXTM (Gibco) supplemented with 5000 U mL^−1 penicillin–streptomycin (Gibco). Cells were then incubated for 1 h with increasing concentrations of 64, 37, or DMSO. Subsequently, cells were stimulated for 5 min with 1 μM of insulin (#91077C, Sigma–Aldrich, USA). Cells were lysed and protein extracts were analyzed by western blot to assess the phosphorylation level of Akt on Ser473.

The test system of another experiment is PC3 cells. As to the kind of experiment: cell-cycle analysis, propidium iodide flow cytometry. The format is cell-based. As to conditions: 10 μM, 48 h. As for the experimental part:
Cell‐cycle analysis: For DNA content determination, PC3 cells were seeded at 4×10^5 cells per 6 cm dish in triplicate in the presence of DMEM high glucose GlutaMAXTM (Gibco), 10 % fetal bovine serum (Invitrogen) supplemented with 5000 U mL^−1 penicillin–streptomycin (Gibco). The day after seeding, cells were treated for 48 h with 10 μM 64 or DMSO. Subsequently, PC3 cells were detached with 0.1 % trypsin–EDTA (Gibco), fixed in 70 % ethanol overnight at −20 °C, and stained for 40 min at […] with PI solution, containing 0.05 % Triton X‐100, 0.1 mg mL^−1 RNase, and 25 μg mL^−1 propidium iodide. Sample were analyzed for the DNA content by using a FACS‐Calibur flow cytometer (Becton Dickinson Immunocytometry Systems, San Jose, USA). The percentages of cells in the G0/G1, S, and G2 phases were calculated.
Background: In flow cytometry, cells or beads pass a laser one at a time.

T1 sequence (P42336 whole entry): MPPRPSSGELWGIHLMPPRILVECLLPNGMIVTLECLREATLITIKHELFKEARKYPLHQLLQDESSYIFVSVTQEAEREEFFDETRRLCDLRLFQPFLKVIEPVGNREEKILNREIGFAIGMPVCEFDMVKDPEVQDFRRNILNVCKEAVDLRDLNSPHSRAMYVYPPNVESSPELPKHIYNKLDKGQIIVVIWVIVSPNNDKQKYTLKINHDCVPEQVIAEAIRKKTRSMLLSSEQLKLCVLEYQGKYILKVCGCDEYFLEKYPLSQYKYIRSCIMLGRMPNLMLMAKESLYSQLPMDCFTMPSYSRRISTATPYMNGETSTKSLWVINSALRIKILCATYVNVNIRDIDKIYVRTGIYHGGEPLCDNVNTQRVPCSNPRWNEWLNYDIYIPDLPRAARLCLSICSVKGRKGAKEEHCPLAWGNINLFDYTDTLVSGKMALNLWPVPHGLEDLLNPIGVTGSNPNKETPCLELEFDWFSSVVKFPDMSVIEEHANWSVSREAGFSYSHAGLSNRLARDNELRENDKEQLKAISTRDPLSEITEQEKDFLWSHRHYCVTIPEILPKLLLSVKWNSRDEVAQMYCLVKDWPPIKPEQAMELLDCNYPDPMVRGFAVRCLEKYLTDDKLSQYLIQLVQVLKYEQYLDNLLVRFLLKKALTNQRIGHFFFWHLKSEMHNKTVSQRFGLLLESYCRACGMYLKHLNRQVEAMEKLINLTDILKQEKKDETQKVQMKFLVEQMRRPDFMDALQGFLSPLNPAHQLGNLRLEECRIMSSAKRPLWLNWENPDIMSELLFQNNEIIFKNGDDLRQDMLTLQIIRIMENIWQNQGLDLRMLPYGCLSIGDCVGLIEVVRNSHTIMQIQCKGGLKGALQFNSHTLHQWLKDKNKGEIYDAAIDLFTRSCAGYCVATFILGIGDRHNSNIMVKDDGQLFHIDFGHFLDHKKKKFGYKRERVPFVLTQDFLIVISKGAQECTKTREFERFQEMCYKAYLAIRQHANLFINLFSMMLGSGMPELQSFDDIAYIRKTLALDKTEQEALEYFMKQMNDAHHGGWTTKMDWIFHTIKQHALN
T1 sequence (P27986 whole entry partner): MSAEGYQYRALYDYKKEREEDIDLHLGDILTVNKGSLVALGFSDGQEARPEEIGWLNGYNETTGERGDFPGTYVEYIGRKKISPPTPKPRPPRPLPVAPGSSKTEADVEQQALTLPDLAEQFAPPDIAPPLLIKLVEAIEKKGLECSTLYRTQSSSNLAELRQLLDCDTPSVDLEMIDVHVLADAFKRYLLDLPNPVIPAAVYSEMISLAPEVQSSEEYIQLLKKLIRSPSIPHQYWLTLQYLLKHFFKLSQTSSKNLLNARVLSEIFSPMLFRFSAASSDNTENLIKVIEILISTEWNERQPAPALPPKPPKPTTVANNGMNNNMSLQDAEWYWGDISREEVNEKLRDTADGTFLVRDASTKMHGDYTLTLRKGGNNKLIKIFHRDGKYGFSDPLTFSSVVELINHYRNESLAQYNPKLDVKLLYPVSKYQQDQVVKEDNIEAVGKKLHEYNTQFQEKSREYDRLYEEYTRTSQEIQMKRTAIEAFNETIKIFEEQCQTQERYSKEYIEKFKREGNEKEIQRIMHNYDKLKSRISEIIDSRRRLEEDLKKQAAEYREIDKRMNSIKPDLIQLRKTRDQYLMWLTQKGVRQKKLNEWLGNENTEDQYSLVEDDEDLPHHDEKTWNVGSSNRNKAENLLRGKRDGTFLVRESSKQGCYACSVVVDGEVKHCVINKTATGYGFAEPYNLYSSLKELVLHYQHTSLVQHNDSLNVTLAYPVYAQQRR
Chain of hPI3K‐C2α (PIK3C2A) (O00443 whole entry): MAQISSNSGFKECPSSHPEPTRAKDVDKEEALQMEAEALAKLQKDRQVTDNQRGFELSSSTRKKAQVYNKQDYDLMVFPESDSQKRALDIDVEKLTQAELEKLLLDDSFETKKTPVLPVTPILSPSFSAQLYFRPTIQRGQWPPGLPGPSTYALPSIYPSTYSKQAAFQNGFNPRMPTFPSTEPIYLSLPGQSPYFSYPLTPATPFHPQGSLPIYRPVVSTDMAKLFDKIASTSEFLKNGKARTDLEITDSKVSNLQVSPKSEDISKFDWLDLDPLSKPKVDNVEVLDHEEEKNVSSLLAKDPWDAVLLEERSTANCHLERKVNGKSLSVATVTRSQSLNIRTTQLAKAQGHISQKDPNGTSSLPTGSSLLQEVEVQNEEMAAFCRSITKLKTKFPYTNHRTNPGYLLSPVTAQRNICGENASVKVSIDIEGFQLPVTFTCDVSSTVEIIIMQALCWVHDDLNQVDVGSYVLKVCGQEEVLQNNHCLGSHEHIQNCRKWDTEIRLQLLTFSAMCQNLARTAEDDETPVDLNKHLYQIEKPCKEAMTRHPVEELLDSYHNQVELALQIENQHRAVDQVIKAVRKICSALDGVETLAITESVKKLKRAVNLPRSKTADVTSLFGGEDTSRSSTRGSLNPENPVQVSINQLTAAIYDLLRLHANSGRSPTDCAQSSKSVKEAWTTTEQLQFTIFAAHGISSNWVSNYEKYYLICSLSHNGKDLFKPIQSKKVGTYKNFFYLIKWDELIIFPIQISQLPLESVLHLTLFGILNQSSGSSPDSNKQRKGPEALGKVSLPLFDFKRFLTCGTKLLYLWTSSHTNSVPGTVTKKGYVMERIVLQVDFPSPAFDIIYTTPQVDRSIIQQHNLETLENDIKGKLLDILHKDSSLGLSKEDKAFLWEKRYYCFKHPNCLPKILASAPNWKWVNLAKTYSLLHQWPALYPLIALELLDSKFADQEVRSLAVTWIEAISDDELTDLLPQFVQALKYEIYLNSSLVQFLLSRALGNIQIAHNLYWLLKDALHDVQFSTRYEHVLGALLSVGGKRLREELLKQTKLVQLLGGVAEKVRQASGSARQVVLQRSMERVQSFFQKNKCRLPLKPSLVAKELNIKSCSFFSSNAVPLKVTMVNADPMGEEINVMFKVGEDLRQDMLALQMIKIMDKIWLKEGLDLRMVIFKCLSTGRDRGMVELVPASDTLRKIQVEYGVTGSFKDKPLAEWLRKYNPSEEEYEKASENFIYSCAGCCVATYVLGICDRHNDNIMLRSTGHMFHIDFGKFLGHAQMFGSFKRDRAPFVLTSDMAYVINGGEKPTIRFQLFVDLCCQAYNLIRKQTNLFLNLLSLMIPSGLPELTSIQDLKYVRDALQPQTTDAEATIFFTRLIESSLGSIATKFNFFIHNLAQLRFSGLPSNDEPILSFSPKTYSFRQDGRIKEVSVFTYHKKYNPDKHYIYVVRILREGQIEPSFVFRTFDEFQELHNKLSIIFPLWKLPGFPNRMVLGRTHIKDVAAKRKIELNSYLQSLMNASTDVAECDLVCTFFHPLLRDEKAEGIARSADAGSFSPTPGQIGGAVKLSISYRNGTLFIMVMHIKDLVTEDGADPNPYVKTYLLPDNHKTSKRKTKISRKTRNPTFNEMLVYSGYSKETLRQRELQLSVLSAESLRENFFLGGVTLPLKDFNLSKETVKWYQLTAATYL

A word on the IC50: it is the concentration that inhibits the measured activity by half. On to `O=C(O)c1cccc(Cn2cc(-c3cccc4c(=O)cc(N5CCOCC5)[nH]c34)nn2)c1` [Compound 37, 3‐{[4‐(2‐Morpholino‐4‐oxo‐1,4‐dihydroquinolin‐8‐yl)‐1H‐1,2,3‐triazol‐1‐yl]methyl}benzoic acid], for which the IC50 in experiment [1] (Table 2, mean of at least three determinations, 95 % confidence intervals, read-out: IC50 PI3Kα) was 18 ± 4 nM; at hPI3Kγ (PIK3CG) (Table 2, mean of at least three determinations, 95 % confidence intervals), 186 ± 43 nM; at hPI3K‐C2α (PIK3C2A), 3.7 ± 1.1 µM; on hPI3K‐C2β (PIK3C2B) it was more than 20 µM; at hVps34 (PIK3C3) it was 590 ± 200 nM. For the same compound, the inhibition at 1 µM in experiment [1] (determined at 1 μM, at least triplicate, read-out: Inhibitory activity, PI3K isoform α) was more than 50%; at hPI3Kγ (PIK3CG) (determined at 1 μM, at least triplicate, read-out: Inhibitory activity, PI3K isoform γ), more than 50%. Further, in experiment [2], the “Akt phosphorylation after insulin stimulation” value is recorded as “did not decrease Akt phosphorylation”.
As for `COC(=O)c1cccc(Cn2cc(-c3cccc4c(=O)cc(N5CCOCC5)[nH]c34)nn2)c1` [Compound 64, Methyl 3‐{[4‐(2‐morpholino‐4‐oxo‐1,4‐dihydroquinolin‐8‐yl)‐1H‐1,2,3‐triazol‐1‐yl]methyl}benzoate], in experiment [1] (at 100 nM), the “inhibition of PI3Kα activity” value is “not able to inhibit PI3Kα activity”. In experiment [2], the “Akt phosphorylation after insulin stimulation” value was “able to inhibit the PI3K‐signaling pathway in a dose‐dependent manner”. Besides, in the experiment on PC3 cells, the “effect on cell cycle” value is recorded as “induce cell‐cycle arrest”.

The record behind these values is PMC5697638, “Identification of a Potent Phosphoinositide 3‐Kinase Pan Inhibitor Displaying a Strategic Carboxylic Acid Group and Development of Its Prodrugs” (Chemmedchem, 2017).
